Reference: ChEMBL document CHEMBL1201862, “PubChem BioAssay data set” (2004)
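Dose response: 5 concentrations. Exposure: 48 h. Format: 96-well plates. Endpoint: linear interpolation; highest concentration if not reached. The concentration for 50% growth inhibition is given as GI50.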 Active and inactive are the calls of the source. Cut-off read from the data, not from the text of the source: active = GI50 up to about 1.1 µM and inactive = higher.

Columns and labels:
Assay in all cases: growth of human tumour cells (NCI), 48 h
LOX IMVI = tested on: LOX IMVI
OVCAR-8 = tested on: OVCAR-8
DLD-1 = tested on: DLD-1
HL-60 = tested on: HL-60
SK-OV-3 = tested on: SK-OV-3
HOP-62 = tested on: HOP-62
M14 = tested on: M14
NCI-H522 = tested on: NCI-H522
SK-MEL-28 = tested on: SK-MEL-28
ACHN = tested on: ACHN
MOLT-4 = tested on: MOLT-4
TK-10 = tested on: TK-10
COLO 205 = tested on: COLO 205
A498 = tested on: A498
A549 = tested on: A549
SK-MEL-2 = tested on: SK-MEL-2
IGROV-1 = tested on: IGROV-1
RPMI-8226 = tested on: RPMI-8226
MCF7 = tested on: MCF7
MDA-MB-231 = tested on: MDA-MB-231

Compound | GI50 (LOX IMVI) | GI50 (OVCAR-8) | GI50 (DLD-1) | GI50 (HL-60) | GI50 (SK-OV-3) | GI50 (HOP-62) | GI50 (M14) | GI50 (NCI-H522) | GI50 (SK-MEL-28) | GI50 (ACHN) | GI50 (MOLT-4) | GI50 (TK-10) | GI50 (COLO 205) | GI50 (A498) | GI50 (A549) | GI50 (SK-MEL-2) | GI50 (IGROV-1) | GI50 (RPMI-8226) | GI50 (MCF7) | GI50 (MDA-MB-231)
Sc1nnc(COc2ccc(Cl)cc2)[nH]1 | > 100 µM (inactive) | > 100 µM (inactive) | > 100 µM (inactive) | > 100 µM (inactive) | > 100 µM (inactive) | > 100 µM (inactive) | > 100 µM (inactive) | > 100 µM (inactive) | > 100 µM (inactive) | > 100 µM (inactive) | > 100 µM (inactive) | > 100 µM (inactive) | > 100 µM (inactive) | > 100 µM (inactive) | > 100 µM (inactive) | > 100 µM (inactive) | > 100 µM (inactive) | > 100 µM (inactive) | – | –
CN(C)CC1CCC(CN(C)C)C(=O)C1=O (stereo not given) | 8.63 µM (inactive) | 3.01 µM (inactive) | 3.05 µM (inactive) | 2.36 µM (inactive) | 24 µM (inactive) | 20.1 µM (inactive) | 5.52 µM (inactive) | 0.946 µM (active) | 8.87 µM (inactive) | 4.85 µM (inactive) | 2.03 µM (inactive) | 3.6 µM (inactive) | 1.79 µM (inactive) | 16.8 µM (inactive) | 10.9 µM (inactive) | 19.3 µM (inactive) | 17.6 µM (inactive) | 2.52 µM (inactive) | 2.46 µM (inactive) | 6.22 µM (inactive)
CC1=NN(C(=O)c2ccc(Cl)cc2)C(=O)/C1=C/c1ccc(Cl)cc1 | > 100 µM (inactive) | > 100 µM (inactive) | > 100 µM (inactive) | > 100 µM (inactive) | > 100 µM (inactive) | > 100 µM (inactive) | > 100 µM (inactive) | > 100 µM (inactive) | > 100 µM (inactive) | > 100 µM (inactive) | > 100 µM (inactive) | > 100 µM (inactive) | > 100 µM (inactive) | > 100 µM (inactive) | > 100 µM (inactive) | > 100 µM (inactive) | > 100 µM (inactive) | > 100 µM (inactive) | – | –
CC1=NN(C(=O)c2ccccc2O)C(=O)/C1=C/c1cccc([N+](=O)[O-])c1 | 0.695 µM (active) | 0.889 µM (active) | 0.459 µM (active) | 1.22 µM (inactive) | 15.3 µM (inactive) | 1.23 µM (inactive) | 2.37 µM (inactive) | 3.99 µM (inactive) | > 49.7 µM (inactive) | 0.528 µM (active) | – | 15.6 µM (inactive) | 29 µM (inactive) | 0.164 µM (active) | 0.448 µM (active) | 3.1 µM (inactive) | 0.384 µM (active) | 13.3 µM (inactive) | 2.52 µM (inactive) | 41.8 µM (inactive)
C=C(C)[C@@H]1CC=C(CO)CC1 [PERILLYL ALCOHOL] | 195 µM (inactive) | 145 µM (inactive) | 220 µM (inactive) | 50.1 µM (inactive) | 748 µM (inactive) | 184 µM (inactive) | 710 µM (inactive) | 344 µM (inactive) | 201 µM (inactive) | 121 µM (inactive) | 72.3 µM (inactive) | 324 µM (inactive) | 199 µM (inactive) | 548 µM (inactive) | 126 µM (inactive) | 122 µM (inactive) | 574 µM (inactive) | > 10 µM (inactive) | > 10 µM (inactive) | > 10 µM (inactive)
